Measured values taken from US10370391B2, “Hydrogen peroxide-activable, anti-oxidant compounds and methods using same” (Beth Israel Deaconess Medical Center, Inc., priority 2014, dated 2019).

Columns and labels:
[1] = Reaction of BRAP with H2O2 monitored by 1H NMR in D2O; format: physicochemical
Protocol: Since BRAP was designed to be rapidly oxidized by H2O2, generating HBA, boric acid and 2-(hydroxymethyl)-2-methylpropane-1,3-diol, the sensitivity of BRAP to H2O2 was investigated using ^1H NMR. BRAP was added to D2O containing H2O2 and the changes in the signal were monitored over time. In the presence of H2O2, BRAP was rapidly oxidized to generate HBA in a H2O2 concentration-dependent manner, confirmed by the appearance of new aromatic proton peaks at 6.8 and 7.2 ppm. In the presence of equimolar concentration of H2O2 (1 mM), a majority of boronic esters were cleaved within 30 minutes, with a half-life of hydrolysis of ˜5 minutes. Nearly all of boronic ester groups were cleaved by 5-fold excess of H2O2 (5 mM) within 5 minutes.

[2] = test system: H2O2-stimulated adult rat cardiomyocytes; assay: Protection from H2O2-induced cell death in ARVC; format: cell-based; details: H2O2 0.25 mM; concentration dependent; vs vehicle
Protocol: FIG. 4, comprising FIGS. 4A-4F, is a set of graphs, bar graphs and images illustrating anti-oxidant and anti-inflammatory effects of BRAP in vitro. […] The generation of ROS was monitored by flow cytometry as an indicator of DCF fluorescence. Fluorescence was analyzed in 10,000 cells with excitation at 480 nm and emission at 530 nm. FIG. 4C: Protective effect of BRAP on H2O2— stimulated adult rat cardiomyocytes. V=vehicle, *<0.05 vs. V+H2O2 (n=4). […] (n=4/group).
Since cardiovascular disease is one of the most common and clinically relevant problems associated with oxidative stress injury, the effect of BRAP on cellular protection from the H2O2-induced cell death was further examined using ARVC in vitro.

[3] = Activation of BRAP by H2O2, UV spectroscopy (absorbance at 273 nm); format: physicochemical; details: after 90 minutes of treatment with H2O2
Protocol: The activation of BRAP by H2O2 was also studied using UV spectroscopy. BRAP was mixed with H2O2 and the change in UV absorbance was monitored over time.
BRAP was dissolved in PBS (pH 7.4) at a concentration of 1 mM and was incubated at 37° C. in the presence of 100 μM of H2O2. The concentration of HBA generated from BRAP was measured using a UV spectrometer at appropriate time points.

[4] = test system: hepatic I/R injury; assay: Mouse model of hepatic I/R injury; format: in vivo; details: ip at reperfusion
Protocol: FIG. 5, comprising FIGS. 5A-5D, is a set of images and bar graphs illustrating beneficial effects of BRAP in hepatic I/R (1 hour ischemia/12 hour reperfusion) injury. FIG. 5A: Hematoxylin and eosin (H/E) staining, DHE staining, and TUNEL staining of mouse liver after injection with HBA or BRAP. FIGS. 5B-5D: Quantitative analysis of serum ALT levels (FIG. 5B), cleaved caspase-3 protein expression (FIG. 5C), and TNF-α protein expression (FIG. 5D) after I/R injury. *p<0.01 relative to Veh I/R. †p<0.05 relative to HBA I/R (n=3˜4/group). Actin protein expression was used as an internal control for protein loading.
Experiments to evaluate whether BRAP reduces ROS generation and inhibits apoptosis were performed in a mouse model of […] I/R injuries. I/R was induced first by 1 hour of ligation of hepatic artery and portal vein followed by reperfusion of hepatic artery. BRAP or HBA was then administrated intraperitoneally (ip) at the time of reperfusion.
Hepatic I/R surgery was performed in 12 week-old male mice. Briefly, mice were anaesthetized, and midline incision was performed for laparotomy. After identifying the portal triad and biliary tree, the main trunk of hepatic artery and portal vein were clamped with vascular clip except for the vasculatures to the right lower lobe to achieve ischemic injury to approximately 70% of the liver. After 1 hour of ischemia, reperfusion was achieved by releasing the vascular clip. No vascular clamp was done for the sham group of mice.
For liver apoptosis assay, terminal deoxynucleotidyl transferase dUTP nick end labeling (TUNEL) staining was performed using a DeadEnd™ Fluorometric TUNEL kit (Promega, Madison, Wis.). Tissue sections were stained for nuclei (4′,6-diamidino-2-phenylindole (DAPI) staining) and apoptotic nuclei (TUNEL staining) and analyzed using a confocal laser scanning microscope. For heart tissues, TUNEL staining was performed using in situ cell death detection Kit, fluorescein (Roche Applied Science, Indianapolis, Ind.). To distinguish cardiomyocyte from non-cardiomyocyte nuclei, triple stain for nuclei (DAPI staining), apoptotic nuclei (TUNEL staining), and cardiomyocytes (α-Actinin staining) was used, and the stained sections were analyzed using confocal microscopy. A minimum of ˜10 high power fields with ˜2000 nuclei/field were counted for each sample.
Heart tissues were collected for molecular analyses were performed in Bae, et al., 2010, Am J Physiol Heart Circ Physiol 299:H1374. For RT-PCR ribosomal 18S primers acted as internal controls and all RT-PCR signals were normalized to the 18S signal of the corresponding RT products. For Western blot analysis, the protein content was measured using BCA assay. Actin protein expression was used as an internal control for protein loading.
The optimal cutting temperature (OCT)-embedded tissues were fixed in 4% paraformaldehyde. Tissue sections were incubated with 5 μM dihydroethidium (DHE, Sigma-Aldrich) at 37° C. for 30 min in a humidified chamber protected from light. Then, 4′,6-diamidino-2-phenylindole (DAPI) was applied. Images were acquired by confocal fluorescence microscope.

In the case of `CC1(CO)COB(c2ccc(CO)cc2)OC1` [BRAP, (4-(5-(hydroxymethyl)-5-methyl-1,3,2-dioxaborinan-2-yl)phenyl)methanol], the “time in which nearly all of boronic ester groups were cleaved” value ([1]; 5-fold excess of H2O2 (5 mM)) is reported as no more than 5 min, the half-life at 1 mM ([1]; D2O containing H2O2, equimolar concentration of H2O2 (1 mM), read-out: half-life of hydrolysis) is reported as roughly 5 min and the “stability of boronic ester” value ([1]; absence of H2O2, 3 days) is reported as “remained intact”. For the same compound, the “time in which a majority of boronic esters were cleaved” value ([1]; equimolar concentration of H2O2 (1 mM)) was no more than 30 min, the “protection from H2O2-induced cell death” value [2] was “significant protection” and the “change in UV absorbance (HBA generation)” value [3] was “no further increase in UV absorbance”. For the same compound, the “ROS generation (DHE staining) in liver” value [4] was “higher inhibitory effects on ROS generation than HBA”, the “protection from I/R-induced liver damage (serum ALT)” value [4] was “concentration-dependent protection” and the “hepatic damages (histology, H/E)” value ([4]; 1 hour ischemia/12 hour reperfusion, same dose of HBA and BRAP) was “significant attenuation”. The TNF-α protein expression ([4]; same dose of HBA and BRAP) was “significant inhibition”, the “cleaved caspase-3 protein expression” value ([4]; same dose of HBA and BRAP) was “significant inhibition” and the “hepatic apoptosis (TUNEL)” value ([4]; same dose of HBA and BRAP) was “significantly greater anti-apoptotic effects than HBA”.
